# What was measured:
# [1] = tested on: Pseudomonas aeruginosa; test: minimum inhibitory concentration, broth two-fold serial dilution test, Pseudomonas aeruginosa; type: cell-based, Pseudomonas aeruginosa ATCC 15442; conditions: for MIC (TSB media) Psae: Pseudomonas aeruginosa ATCC 15442, lowest concentration with complete inhibition of growth; for MIC: Pseudomonas aeruginosa, ATCC15442, Pseudomonas aeruginosa ATCC 15442, TSB media, lowest concentration with complete inhibition of growth, read-out: MIC (TSB media) Psae
# Protocol: (§1) Bactericidal and fungicidal evaluations of the compounds of Example 5 were carried out.
# (§2) A minimum inhibitory concentration (MIC) value is obtained using a broth, two-fold serial dilution test performed as follows: A stock solution or dispersion of the test compound, typically at a concentration of 1%, is made in a 5:3:2 solvent solution of acetone, methanol, and water. A volume of the stock solution is dispensed into culture media to give an initial starting test concentration of 500 ppm compound.
# (§3) When the test is ready to be done, each vessel in the dilution series, except the first vessel, contains an equal volume of compound free broth. The first vessel contains twice the volume of broth with the starting concentration of test compound. One half of the broth from the first vessel is transferred to the second vessel. After being mixed, one half the resulting volume is removed from the second vessel and transferred to the third vessel. The entire cycle is repeated sufficiently to give a series of concentrations amounting to 500, 250, 125, 63, 31, 16, 8 and 4, 2, 1, 0.5, 0.25 ppm respectively.
# (§4) Each vessel is then inoculated with a cell suspension of the appropriate test organism. Bacteria are grown in broth, fungi or agar slants for a time and at a temperature appropriate to the species being tested, and algae are a mixture of green algae and blue-green bacteria grown in a nutrient media. At the end of the growth period, in the case of bacteria, the broth is vortexed to disperse the cells.
# (§5) The vessels are then incubated at the appropriate temperature. After the incubation, the vessels are examined for growth/no growth. The minimum inhibitory concentration (MIC) is defined as the lowest concentration of compounds that results in complete inhibition of growth of the test organism.
# 1. Pseudomonas aeruginosa
# [2] = tested on: Rhodotorula rubra; test: minimum inhibitory concentration, broth two-fold serial dilution test, Rhodotorula rubra; type: cell-based; conditions: lowest concentration with complete inhibition of growth; for MIC: Rhodotorula, TSB media, read-out: MIC (TSB media) Rrub
# Protocol: as §1, §2, §3, §4
# (§6) In the case of fungi, the spores are harvested by pipetting water onto the slant and dislodging the spores with a sterile loop. The cell/spore suspension is standardized by controlling incubation time, temperature, and the volume of the diluent. The suspension is then used to inoculate the vessels containing the broth compound.
# as §5
# 4. Rhodotorula rubra Rrub
# [3] = tested on: Escherichia coli; test: minimum inhibitory concentration, broth two-fold serial dilution test, Escherichia coli; type: cell-based, Escherichia coli ATCC 11229; conditions: for MIC (TSB media) Ecol: Escherichia coli ATCC 11229, lowest concentration with complete inhibition of growth; for MIC: Escherichia coli, ATCC11229, Escherichia coli ATCC 11229, TSB media, lowest concentration with complete inhibition of growth, read-out: MIC (TSB media) Ecol
# Protocol: as §1, §2, §3, §4, §5
# [4] = tested on: Aspergillus niger; test: minimum inhibitory concentration, broth two-fold serial dilution test, Aspergillus niger; type: cell-based, Aspergillus niger ATCC 6275; conditions: for MIC (TSB media) Anig: Aspergillus niger ATCC 6275, lowest concentration with complete inhibition of growth; for MIC: Aspergillus niger, ATCC6275, Aspergillus niger ATCC 6275, TSB media, lowest concentration with complete inhibition of growth, read-out: MIC (TSB media) Anig
# Protocol: as §1, §2, §3, §4, §6, §5
# 3. Aspergillus niger 6275 Anig
Compound,MIC (TSB media) Psae [1] [ppm],MIC (TSB media) Rrub [2] [ppm],MIC (TSB media) Ecol [3] [ppm],MIC (TSB media) Anig [4] [ppm],MIC [1] [mg/L],MIC [2] [mg/L],MIC [3] [mg/L],MIC [4] [mg/L]
"CCCCCCCCCCCCCC[N+]1(CC#CBr)CCCCC1C (stereo not drawn) [Compound 15, 1-tetradecyl-1-(3-bromopropargyl)-(2-methyl)piperidinium methanesulfonate]",300,< 1,5,3.2,–,–,–,–
"CCCCCCCCCCCCCC[N+]1(CC#CBr)CCCCC1C (stereo not drawn) [Compound 16, 1-tetradecyl-1-(3-bromopropargyl)-(2-methyl)piperidinium benzenesulfonate]",500,< 4,8,< 4,–,–,–,–
"CCCCCCCCCCCCCC[N+]1(CC#CBr)CCCCC1 [Compound 17, 1-tetradecyl-1-(3-bromopropargyl)-piperidinium benzenesulfonate]",32,< 4,< 4,< 4,–,–,–,–
"CCCCCCCC[N+](CC#CBr)(CCCCCCCC)CCCCCCCC [Compound 18, trioctyl-(3-bromopropargyl) ammonium benzenesulfonate]",–,–,–,–,16,1.6,< 4,1.6
"CCCCCCCC[N+](C)(C)CC#CBr [Compound 19, dimethyloctyl(3-bromopropargyl) ammonium benzenesulfonate]",–,–,–,–,250,< 4,16,< 4
"CCCCCCCC[N+](CC#CBr)(CCCCCCCC)CCCCCCCC [Compound 20, trioctyl(3-bromopropargyl) ammonium 4-methylbenzenesulfonate]",8,0.8,< 4,3.2,–,–,–,–
"CCCCCC[N+](CC#CBr)(CCCCCC)CCCCCC [Compound 22, trihexyl(3-bromopropargyl) ammonium benzenesulfonate]",–,12.5,–,–,500,–,125,25
"CCCCCC[N+](CC#CBr)(CCCCCC)CCCCCC [Compound 23, trihexyl(3-bromopropargyl) ammonium 4-methylbenzenesulfonate]",500,< 50,250,50,–,–,–,–
"CCCCCCCCCCCC[N+](CC#CBr)(CCCCCCCCCCCC)CCCCCCCCCCCC [Compound 24, tridodecyl(3-bromopropargyl) ammonium 4-methylbenzenesulfonate]",–,–,–,–,500,> 50,500,> 50
"CCCCCCCC[N+](C)(CC#CBr)CCCCCCCC [Compound 25, methyldioctyl(3-bromopropargyl) ammonium 4-methylbenzenesulfonate]",–,–,–,–,500,6.3,32,12.5
"CCCCCC[N+](CC#CI)(CCCCCC)CCCCCC [Compound 31, reference compound]",–,–,–,–,> 500,6.3,63,12.5
"CCCCCCCCCCCCCC[N+]1(CC#CI)CCOCC1 [Compound 32, reference compound]",–,–,–,–,125,4,8,4
"CCCCCCCCCCCCCC[N+]1(CC#CI)CCCCC1 [Compound 33, reference compound]",–,–,–,–,125,2,4,4
"CCCCCCCC[N+](CC#CI)(CCCCCCCC)CCCCCCCC [Compound 34, reference compound]",–,–,–,–,1.6,1.6,> 500,1.6
dimethyldodecyl ammonium 4-methylbenzenesulfonate [Compound 21],250,3.2,32,6.3,–,–,–,–

# — patent US5411933A, “Bromopropargyl quarternary ammonium compounds having antimicrobial activity” (Rohm & Haas Company, priority 1994, dated 1995)
